Test results as given in paper PMC10987480, “Biological and mutational analyses of CXCR4–antagonist interactions and design of new antagonistic analogs” (Bioscience Reports, 2023).
Positions of bridges follow the written chain, without caps; N, C: chain ends. Non-standard residues stand in square brackets, D forms with d. Residues, ends and D or L forms follow the SMILES beside them. Chains are numbered I, II in the order given. 2Nal = N[C@@H](Cc1ccc2ccccc2c1)C(=O)O; Lys(iPr) = CC(C)NCCCC[C@H](N)C(=O)O

What was measured:
CXCR4 F87A = molecular target: T1, CXCR4 F87A (Homo sapiens, UniProt P61073, F87A); experiment: Competitive binding to CXCR4 mutant F87A (12G5, CHO cells); details: TM2, class of reduction vs wild-type CXCR4, 12G5 competition, averages of at least three independent experiments
T1 construct: expressed in transfected cells
T1 sequence (P61073 whole entry F87A): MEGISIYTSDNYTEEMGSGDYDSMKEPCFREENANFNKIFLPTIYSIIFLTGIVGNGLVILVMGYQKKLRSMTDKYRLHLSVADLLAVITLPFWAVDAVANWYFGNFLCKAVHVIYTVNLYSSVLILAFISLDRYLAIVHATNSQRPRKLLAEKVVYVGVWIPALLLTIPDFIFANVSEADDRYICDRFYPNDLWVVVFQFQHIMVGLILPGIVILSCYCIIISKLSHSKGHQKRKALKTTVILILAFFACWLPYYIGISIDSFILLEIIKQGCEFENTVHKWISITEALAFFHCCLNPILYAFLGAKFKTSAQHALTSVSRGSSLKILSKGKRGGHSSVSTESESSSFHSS
Method: (§1) Plasmid pcDNA3-CXCR4 and mutated pcDNA3-CXCR4 were extracted and transfected into CHO cells using Lipofectamine 2000 according to the manufacturer’s guidelines. The selective medium containing G418 at a concentration of 1.2 mg/ml was applied to isolate stably transfected cells. CHO cells expressing wild-type CXCR4 and mutant CXCR4 were obtained using fluorescence-activated cell sorting (FACS).
(§2) All of the CXCR4 mutants were prepared using PCR technology. Briefly, pairs of asymmetrical primers containing the desired amino acid mutations (Supplementary Tables S1 and S2), each complementary to opposite strands of the pcDNA3–CXCR4, were designed for amplification by Q5® High-Fidelity DNA polymerase and the generation of mutated constructs. The methylated pcDNA3–CXCR4 templates were digested by DpnI. The mutated pcDNA3–CXCR4 was transformed into competent E. coli TOP10 for long-term storage and amplification.
(§3) The procedure for the CXCR4 competitive binding experiments was published previously. Briefly, CXCR4 antibody 12G5 (250 ng/ml) was incubated with 5 × 10^5 cells and varying concentrations of unlabeled compounds in a final volume of 100 μl of assay buffer (PBS with 0.5% BSA and 0.05% NaN3) in 96-well plates for 40 min on ice, after being washed with assay buffer once. The cells were incubated with FITC-conjugated second antibody IgG for 30 min on ice, then washed with assay buffer three times. The fluorescence intensity was measured for excitation at 485 nm and emission at 535 nm using multimode plate reader (PerkinElmer). The IC50 values were calculated using graphpad Prism 7. Experiments were performed at least three times.

CXCR4 D97A = molecular target: T2, CXCR4 D97A (Homo sapiens, UniProt P61073, D97A); experiment: Competitive binding to CXCR4 mutant D97A (12G5, CHO cells); details: TM2, class of reduction vs wild-type CXCR4, 12G5 competition, averages of at least three independent experiments
T2 construct: expressed in transfected cells
T2 sequence (P61073 whole entry D97A): as the sequence (P61073 whole entry F87A) above, with A87F, D97A counted along it
Method: as §1, §2, §3

CXCR4 Y116A = molecular target: T3, CXCR4 Y116A (Homo sapiens, UniProt P61073, Y116A); experiment: Competitive binding to CXCR4 mutant Y116A (12G5, CHO cells); details: TM3, class of reduction vs wild-type CXCR4, 12G5 competition, averages of at least three independent experiments
T3 construct: expressed in transfected cells
T3 sequence (P61073 whole entry Y116A): as the sequence (P61073 whole entry F87A) above, with A87F, Y116A counted along it
Method: as §1, §2, §3

CXCR4 N119A = molecular target: T4, CXCR4 N119A (Homo sapiens, UniProt P61073, N119A); experiment: Competitive binding to CXCR4 mutant N119A (12G5, CHO cells); details: TM3, class of reduction vs wild-type CXCR4, 12G5 competition, averages of at least three independent experiments
T4 construct: expressed in transfected cells
T4 sequence (P61073 whole entry N119A): as the sequence (P61073 whole entry F87A) above, with A87F, N119A counted along it
Method: as §1, §2, §3

CXCR4 D171A = molecular target: T5, CXCR4 D171A (Homo sapiens, UniProt P61073, D171A); experiment: Competitive binding to CXCR4 mutant D171A (12G5, CHO cells); details: TM4, class of reduction vs wild-type CXCR4, 12G5 competition, averages of at least three independent experiments
T5 construct: expressed in transfected cells
T5 sequence (P61073 whole entry D171A): as the sequence (P61073 whole entry F87A) above, with A87F, D171A counted along it
Method: as §1, §2, §3

CXCR4 W195A = molecular target: T6, CXCR4 W195A (Homo sapiens, UniProt P61073, W195A); experiment: Competitive binding to CXCR4 mutant W195A (12G5, CHO cells); details: TM4, class of reduction vs wild-type CXCR4, 12G5 competition, averages of at least three independent experiments
T6 construct: expressed in transfected cells
T6 sequence (P61073 whole entry W195A): as the sequence (P61073 whole entry F87A) above, with A87F, W195A counted along it
Method: as §1, §2, §3

CXCR4 Q200A = molecular target: T7, CXCR4 Q200A (Homo sapiens, UniProt P61073, Q200A); experiment: Competitive binding to CXCR4 mutant Q200A (12G5, CHO cells); set-up: key to the marks not given beside the values; details: TM5, class of reduction vs wild-type CXCR4, 12G5 competition, averages of at least three independent experiments
T7 construct: expressed in transfected cells
T7 sequence (P61073 whole entry Q200A): as the sequence (P61073 whole entry F87A) above, with A87F, Q200A counted along it
Method: as §1, §2, §3

CXCR4 Y255A = molecular target: T8, CXCR4 Y255A (Homo sapiens, UniProt P61073, Y255A); experiment: Competitive binding to CXCR4 mutant Y255A (12G5, CHO cells); details: TM6, class of reduction vs wild-type CXCR4, 12G5 competition, averages of at least three independent experiments
T8 construct: expressed in transfected cells
T8 sequence (P61073 whole entry Y255A): as the sequence (P61073 whole entry F87A) above, with A87F, Y255A counted along it
Method: as §1, §2, §3

CXCR4 Y256A = molecular target: T9, CXCR4 Y256A (Homo sapiens, UniProt P61073, Y256A); experiment: Competitive binding to CXCR4 mutant Y256A (12G5, CHO cells); details: TM6, class of reduction vs wild-type CXCR4, 12G5 competition, averages of at least three independent experiments
T9 construct: expressed in transfected cells
T9 sequence (P61073 whole entry Y256A): as the sequence (P61073 whole entry F87A) above, with A87F, Y256A counted along it
Method: as §1, §2, §3

CXCR4 I259A = molecular target: T10, CXCR4 I259A (Homo sapiens, UniProt P61073, I259A); experiment: Competitive binding to CXCR4 mutant I259A (12G5, CHO cells); set-up: key to the marks not given beside the values; details: TM6, class of reduction vs wild-type CXCR4, 12G5 competition, averages of at least three independent experiments
T10 construct: expressed in transfected cells
T10 sequence (P61073 whole entry I259A): as the sequence (P61073 whole entry F87A) above, with A87F, I259A counted along it
Method: as §1, §2, §3

CXCR4 [1] = details: cited from earlier work
Description: To understand the receptor–ligand recognition mechanism involving CXCR4 and its antagonists, here in this study we conducted a series of comparative analyses of the biological activities and CXCR4 binding sites of eleven known CXCR4 antagonists, including the three mentioned above, using cell-based bioassays, CXCR4 site-directed mutagenesis and computer-aided molecular modeling. These antagonists studied here were chosen from different representative structural types including both D-peptides (i.e., HC4319, DV1, DV1 dimer, and DV3) and a representative counterpart L-peptide (i.e., V1) derived ...

CXCR4 [2] = molecular target: CXCR4 (Homo sapiens, UniProt P61073); experiment: Competitive CXCR4 binding assay (12G5 antibody probe), wild-type CXCR4 transfected CHO cells; set-up: expressed in transfected cells; Competitive receptor binding activity, wild-type CXCR4 (WT): key to the marks not given beside the values; details: for Competitive receptor binding activity, wild-type CXCR4 (WT): class relative to wild-type, 12G5 competition, stably transfected CHO cells, averages of at least three independent experiments
CXCR4 (Homo sapiens, UniProt P61073), sequence (P61073 whole entry): as the sequence (P61073 whole entry F87A) above, with A87F counted along it
Method: The CXCR4-specific antibody, 12G5 was used as a probe for the competitive CXCR4 binding assay to evaluate the binding activity of CXCR4 antagonists.
Figure 1 Competitive CXCR4 binding curves of eleven CXCR4 antagonists The CXCR4 transfected CHO cells were incubated with different concentrations of antagonists and 250 ng/ml 12G5 antibody. The CXCR4-binding 12G5 antibody was recognized by FITC-conjugated anti-IgG second antibody. The cells treated with only second antibody were used as a negative control (0%) while cells treated with both 12G5 antibody and second antibody were used as a positive control (100%). Cells treated with CXCR4 antagonists were calculated in percentage relative to the positive and negative controls. The data were averages of at least three independent experiments and shown as mean ± standard error of the mean (S.E.M.).
as §3

CXCR4 W94A = molecular target: T11, CXCR4 W94A (Homo sapiens, UniProt P61073, W94A); experiment: Competitive binding to CXCR4 mutant W94A (12G5, CHO cells); details: TM2, class of reduction vs wild-type CXCR4, 12G5 competition, averages of at least three independent experiments
T11 construct: expressed in transfected cells
T11 sequence (P61073 whole entry W94A): as the sequence (P61073 whole entry F87A) above, with A87F, W94A counted along it
Method: as §1, §2, §3

CXCR4 D262N = molecular target: T12, CXCR4 D262N (Homo sapiens, UniProt P61073, D262N); experiment: Competitive binding to CXCR4 mutant D262N (12G5, CHO cells); details: TM6, class of reduction vs wild-type CXCR4, 12G5 competition, averages of at least three independent experiments
T12 construct: expressed in transfected cells
T12 sequence (P61073 whole entry D262N): as the sequence (P61073 whole entry F87A) above, with A87F, D262N counted along it
Method: as §1, §2, §3

CXCR4 E288Q = molecular target: T13, CXCR4 E288Q (Homo sapiens, UniProt P61073, E288Q); experiment: Competitive binding to CXCR4 mutant E288Q (12G5, CHO cells); details: TM7, class of reduction vs wild-type CXCR4, 12G5 competition, averages of at least three independent experiments
T13 construct: expressed in transfected cells
T13 sequence (P61073 whole entry E288Q): as the sequence (P61073 whole entry F87A) above, with A87F, E288Q counted along it
Method: as §1, §2, §3

CXCR4 E288A = molecular target: T14, CXCR4 E288A (Homo sapiens, UniProt P61073, E288A); experiment: Competitive binding to CXCR4 mutant E288A (12G5, CHO cells); details: TM7, class of reduction vs wild-type CXCR4, 12G5 competition, averages of at least three independent experiments
T14 construct: expressed in transfected cells
T14 sequence (P61073 whole entry E288A): as the sequence (P61073 whole entry F87A) above, with A87F, E288A counted along it
Method: as §1, §2, §3

CXCR4 E288D = molecular target: T15, CXCR4 E288D (Homo sapiens, UniProt P61073, E288D); experiment: Competitive binding to CXCR4 mutant E288D (12G5, CHO cells); details: TM7, class of reduction vs wild-type CXCR4, 12G5 competition, averages of at least three independent experiments
T15 construct: expressed in transfected cells
T15 sequence (P61073 whole entry E288D): as the sequence (P61073 whole entry F87A) above, with A87F, E288D counted along it
Method: as §1, §2, §3

Structure (SMILES)	Competitive receptor binding activity, CXCR4 F87A (CXCR4 F87A)	Competitive receptor binding activity, CXCR4 D97A (CXCR4 D97A)	Competitive receptor binding activity, CXCR4 Y116A (CXCR4 Y116A)	Competitive receptor binding activity, CXCR4 N119A (CXCR4 N119A)	Competitive receptor binding activity, CXCR4 D171A (CXCR4 D171A)	Competitive receptor binding activity, CXCR4 W195A (CXCR4 W195A)	Competitive receptor binding activity, CXCR4 Q200A (CXCR4 Q200A)	Competitive receptor binding activity, CXCR4 Y255A (CXCR4 Y255A)	Competitive receptor binding activity, CXCR4 Y256A (CXCR4 Y256A)	Competitive receptor binding activity, CXCR4 I259A (CXCR4 I259A)	Potency (in words) (CXCR4 [1])	Competitive receptor binding activity, wild-type CXCR4 (WT) (CXCR4 [2])	Competitive receptor binding activity, CXCR4 W94A (CXCR4 W94A)	Competitive receptor binding activity, CXCR4 D262N (CXCR4 D262N)	Competitive receptor binding activity, CXCR4 E288Q (CXCR4 E288Q)	Competitive receptor binding activity, CXCR4 E288A (CXCR4 E288A)	Competitive receptor binding activity, CXCR4 E288D (CXCR4 E288D)	Binding affinity (in words) (CXCR4 [1])	IC50 (CXCR4 [2]; CXCR4 transfected CHO cells, 250 ng/ml 12G5, 40 min on ice, FITC second antibody, mean ± S.E.M. of at least three independent experiments, SEM, read-out: IC50 (nM), inhibition of 12G5 binding to CXCR4) [nM]
c1cc(CN2CCCNCCNCCCNCC2)ccc1CN1CCCNCCNCCCNCC1 [AMD3100]	++ (10–29% reduction compared with wild-type CXCR4)	++ (10–29% reduction compared with wild-type CXCR4)	++ (10–29% reduction compared with wild-type CXCR4)	+++	+ (30–60% reduction compared with wild-type CXCR4)	+++	+++	++ (10–29% reduction compared with wild-type CXCR4)	+++	+++	submicromolar	+++							
NCCCCN(Cc1nc2ccccc2[nH]1)[C@H]1CCCc2cccnc21 [AMD11070]	+ (30–60% reduction compared with wild-type CXCR4)	+ (30–60% reduction compared with wild-type CXCR4)	+++	+++	+ (30–60% reduction compared with wild-type CXCR4)	++ (10–29% reduction compared with wild-type CXCR4)	+++	+++	+++	+++	nanomolar potent	+++	++ (10–29% reduction compared with wild-type CXCR4)	+++					
CC(C)C[C@@H](N)C(=O)NCC(=O)N[C@H](C)C(=O)N[C@H](CO)C(=O)N[C@H](Cc1c[nH]c2ccccc12)C(=O)N[C@H](Cc1c[nH]cn1)C(=O)N[C@H](CCCNC(=N)N)C(=O)N1CCC[C@@H]1C(=O)N[C@H](CC(=O)O)C(=O)N[C@H](CCCCN)C(=O)NCCCC[C@@H](NC(=O)[C@H]1CCCN1C(=O)[C@@H](CC(C)C)NC(=O)[C@H]1CCCN1C(=O)[C@@H](CCCNC(=N)N)NC(=O)[C@@H](CCCCN)NC(=O)[C@@H](CCC(N)=O)NC(=O)[C@@H](Cc1ccc(O)cc1)NC(=O)CNC(=O)[C@@H](CC(C)C)NC(=O)[C@@H](CS)NC(=O)[C@@H](CS)NC(=O)[C@@H](CCCCN)NC(=O)[C@@H](CC(=O)O)NC(=O)[C@H]1CCCN1C(=O)[C@@H](CCCNC(=N)N)NC(=O)[C@@H](Cc1c[nH]cn1)NC(=O)[C@@H](Cc1c[nH]c2ccccc12)NC(=O)[C@@H](CO)NC(=O)[C@@H](C)NC(=O)CNC(=O)[C@H](N)CC(C)C)C(=O)O [HC4319] (I: H-[dL]G[dA][dS][dW][dH][dR][dP][dD][dK][dC][dC][dL]G[dY][dQ][dK][dR][dP][dL][dP][dK]-OH / II: H-[dL]G[dA][dS][dW][dH][dR][dP][dD][dK]; amide I:22-II:C; N-terminus and C-terminus assumed)		++ (10–29% reduction compared with wild-type CXCR4)			+++	++ (10–29% reduction compared with wild-type CXCR4)	+++	++ (10–29% reduction compared with wild-type CXCR4)	+++	+++		+++		++ (10–29% reduction compared with wild-type CXCR4)	++ (10–29% reduction compared with wild-type CXCR4)	+ (30–60% reduction compared with wild-type CXCR4)	+ (30–60% reduction compared with wild-type CXCR4)		
CC(C)NCCCC[C@H](NC(=O)[C@H]1CCC(=O)N[C@@H](Cc2ccccc2)C(=O)N[C@@H](Cc2ccc(O)cc2)C(=O)N[C@@H](CCCCNC(C)C)C(=O)N[C@H](CCCNC(=N)N)C(=O)N[C@@H](Cc2ccc3ccccc3c2)C(=O)NCC(=O)N1)C(N)=O [LY2510924] (FY[Lys(iPr)][dR][2Nal]G[dE][Lys(iPr)]-NH2; lactam N-7 (inferred))		+ (30–60% reduction compared with wild-type CXCR4)		+ (30–60% reduction compared with wild-type CXCR4)		++ (10–29% reduction compared with wild-type CXCR4)		++ (10–29% reduction compared with wild-type CXCR4)	++ (10–29% reduction compared with wild-type CXCR4)			+++		+++				subnanomolar	135 ± 63.9
